# Measurements reported in patent publication US11390604B2 (Hoffmann-La Roche Inc., priority 2019, dated 2022).
# Where a name gives a salt, the structure may show the parent alone.
# Test system: Acinetobacter baumannii ATCC 17961
# Assay: Antimicrobial susceptibility testing: 90% growth inhibitory concentration (IC90) determination
# Type: cell-based
# Conditions: ATCC17961, Acinetobacter baumannii ATCC 17961, Iso-Sensitest broth, read-out: ATCC 17961 IC90
# How it was run: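 Broth microdilution in Iso-Sensitest medium, twofold series (e.g. 50 to 0.097 μM final), ~5×10^5 CFU/ml inoculum, 35±2 °C. OD600 read every 20 min over 16 h. IC90 derived from growth inhibition during logarithmic phase.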
row,SMILES,IC90 [µM]
1,"CCc1cc(NC(=O)c2ncc(-c3cn(CC#N)nc3C(F)(F)F)n2C)ccc1C(=O)NCCOCC(C)(C)N [Example 170, N-(4-((2-(2-amino-2-methylpropoxy)ethyl)carbamoyl)-3-ethylphenyl)-5-(1-(cyanomethyl)-3-(trifluoromethyl)-1H-pyrazol-4-yl)-1-methyl-1H-imidazole-2-carboxamide]",0.234
2,"C=Cn1cc(-c2cnc(C(=O)Nc3ccc(C(=O)N4CCN(C(=O)NC5CNC5)CC4)c(Cl)c3)n2C)c(C(F)(F)F)n1 [Example 171, N-(azetidin-3-yl)-4-(2-chloro-4-(1-methyl-5-(3-(trifluoromethyl)-1-vinyl-1H-pyrazol-4-yl)-1H-imidazole-2-carboxamido)benzoyl)piperazine-1-carboxamide]",0.207
3,"Cn1c(-c2cn(C3CC3(F)F)nc2C(F)(F)F)cnc1C(=O)Nc1ccc(C(=O)N[C@H]2[C@@H]3CN(C(=O)C4CCNCC4)C[C@@H]32)c(Cl)c1 (stereo partly drawn) [Example 172, N-(3-chloro-4-(((1R,5S,6s)-3-(piperidine-4-carbonyl)-3-azabicyclo[3.1.0]hexan-6-yl)carbamoyl)phenyl)-5-(1-(2,2-difluorocyclopropyl)-3-(trifluoromethyl)-1H-pyrazol-4-yl)-1-methyl-1H-imidazole-2-carboxamide formate]",0.146
4,"Cn1c(-c2cn(C3CCC3)nc2C(F)(F)F)cnc1C(=O)Nc1ccc(C(=O)N[C@H]2[C@@H]3CN(C(=O)C4CCNCC4)C[C@@H]32)c(Cl)c1 [Example 173, N-(3-chloro-4-(((1R,5S,6s)-3-(piperidine-4-carbonyl)-3-azabicyclo[3.1.0]hexan-6-yl)carbamoyl)phenyl)-5-(1-cyclobutyl-3-(trifluoromethyl)-1H-pyrazol-4-yl)-1-methyl-1H-imidazole-2-carboxamide formate]",0.234
5,"Cn1c(-c2cn(CC3CCC3)nc2C(F)(F)F)cnc1C(=O)Nc1ccc(C(=O)N[C@H]2[C@@H]3CN(C(=O)C4CCNCC4)C[C@@H]32)c(Cl)c1 [Example 174, N-(3-chloro-4-(((1R,5S,6s)-3-(piperidine-4-carbonyl)-3-azabicyclo[3.1.0]hexan-6-yl)carbamoyl)phenyl)-5-(1-(cyclobutylmethyl)-3-(trifluoromethyl)-1H-pyrazol-4-yl)-1-methyl-1H-imidazole-2-carboxamide formate]",0.25

# Next, values leading:
row,IC90 [µM],SMILES
1,0.33,"Cn1c(-c2cn(CC#N)nc2C(F)(F)F)cnc1C(=O)Nc1ccc(C(=O)N[C@H]2[C@@H]3CN(C(=O)N[C@@H]4CNC[C@H]4O)C[C@@H]32)c(Cl)c1 [Example 175, (1R,5S,6s)-6-(2-chloro-4-(5-(1-(cyanomethyl)-3-(trifluoromethyl)-1H-pyrazol-4-yl)-1-methyl-1H-imidazole-2-carboxamido)benzamido)-N-(trans-4-hydroxypyrrolidin-3-yl)-3-azabicyclo[3.1.0]hexane-3-carboxamide Formate]"
2,0.155,"C=C(F)Cn1cc(-c2cnc(C(=O)Nc3ccc(C(=O)N[C@H]4[C@@H]5CN(C(=O)N[C@@H]6CNC[C@H]6O)C[C@@H]54)c(Cl)c3)n2C)c(C(F)(F)F)n1 [Example 176, (1R,5S,6s)-6-(2-chloro-4-(5-(1-(2-fluoroallyl)-3-(trifluoromethyl)-1H-pyrazol-4-yl)-1-methyl-1H-imidazole-2-carboxamido)benzamido)-N-(trans-4-hydroxypyrrolidin-3-yl)-3-azabicyclo[3.1.0]hexane-3-carboxamide Formate]"
3,0.229,"Cn1c(-c2cn(CC(F)F)nc2C(F)(F)F)cnc1C(=O)Nc1ccc(C(=O)N[C@H]2[C@@H]3CN(C(=O)N[C@H]4C[C@@H](N)C4)C[C@@H]32)c(Cl)c1 [Example 177, (1R,5S,6s)-N-(cis-3-aminocyclobutyl)-6-(2-chloro-4-(5-(1-(2,2-difluoroethyl)-3-(trifluoromethyl)-1H-pyrazol-4-yl)-1-methyl-1H-imidazole-2-carboxamido)benzamido)-3-azabicyclo[3.1.0]hexane-3-carboxamide]"
